Data: US20190169218A1, “AMPHIPATHIC COMPOUND HAVING NOVEL PENTA-SACCHARIDE HYDROPHILIC GROUP AND USE THEREOF” (Industry-University Cooperation Foundation Hanyang …, priority 2016, published 2019)

Columns and labels:
[1] = hydrodynamic radius of micelles by dynamic light scattering (DLS); type: physicochemical; settings: compound at 1.0 wt %
Experimental: Methods of measuring the radius of micelles are not particularly limited, and methods widely known in the art may be used. For example, dynamic light scattering (DLS) may be used.
(§1) Specifically, critical micellar concentrations (CMCs) were measured using hydrophobic fluorescent staining and diphenylhexatriene (DPH), and the hydrodynamic radii (Rh) of micelles formed by each compound at a concentration of 1.0 wt % were measured using dynamic light scattering (DLS). The results were compared with results obtained from an existing amphipathic molecule (detergent), DDM, and are shown in Table 1.
When measuring, each of PSAs, PSEs and TPSs was used at a concentration of 1.0 wt %.

[2] = critical micelle concentration (CMC) by hydrophobic fluorescent staining with diphenylhexatriene (DPH); type: physicochemical
Text: Methods of measuring CMC are not particularly limited, and methods widely known in the art may be used. For example, a fluorescence staining method using diphenylhexatriene (DPH) may be used.
To characterize PSAs of Preparation Examples 1 to 3 synthesized according to the synthetic method of Example 1; PSEs of Preparation Examples 4 to 7 synthesized according to the synthetic method of Example 2; TPS-Es and TPS-ELs of Preparation Examples 8 to 14 synthesized according to the synthetic method of Example 3; and TPS-As of Preparation Examples 15 to 17 synthesized according to the synthetic method of Example 4, the critical micellar concentrations (CMCs) of PSAs, PSEs and TPSs and the hydrodynamic radii (Rh) of formed micelles were measured.
as §1

[3] = biological target: T1, human β2 adrenergic receptor (β2AR) (Homo sapiens, UniProt P07550); assay: β2AR activity by [3H]-dihydroalprenolol radioactive ligand binding assay; type: biochemical; settings: 3 or 5 days at room temperature
T1 construct: Flag; made in house
T1 sequence (P07550 whole entry): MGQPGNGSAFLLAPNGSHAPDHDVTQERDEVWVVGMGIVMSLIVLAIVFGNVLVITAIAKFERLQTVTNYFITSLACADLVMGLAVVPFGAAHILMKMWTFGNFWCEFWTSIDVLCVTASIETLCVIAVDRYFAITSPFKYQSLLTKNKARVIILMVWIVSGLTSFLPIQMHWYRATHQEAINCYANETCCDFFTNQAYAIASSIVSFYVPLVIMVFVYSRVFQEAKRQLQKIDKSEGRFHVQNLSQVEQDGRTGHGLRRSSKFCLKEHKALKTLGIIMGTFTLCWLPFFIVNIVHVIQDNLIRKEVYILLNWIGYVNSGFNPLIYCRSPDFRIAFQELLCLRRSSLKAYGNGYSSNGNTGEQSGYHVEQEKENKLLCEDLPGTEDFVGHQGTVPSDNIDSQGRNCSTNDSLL
Experimental: The membrane protein stabilizing ability of receptors (mBBr-β2ARs) solubilized in PSAs or PSEs was evaluated by measuring the binding activity of the receptors to [^3H]-dihydroalprenolol ([^3H]-DHA).
Specifically, radioactive ligand binding assay was performed as follows. β2ARs purified with 0.1 wt % DDM was concentrated to about 10 mg/mL (approximately 200 μM). β2ARs purified with DDM were used to prepare a master binding mixture containing 10 nM [^3H]-dihydroalprenolol (DHA), which was dissolved in 0.2 wt % of DDM, PSA or PSE and supplemented with 0.5 mg/mL BSA. At a concentration of 0.2 pmol, the activity of the receptors purified with the amphipathic compounds was monitored at regular intervals over a 4-day incubation period. Protein samples were incubated on ice for 2 days and then at room temperature for 2 days. Receptor activity was measured by binding assay for dissolved radioactive ligands. The receptors purified with DDM or a novel formulation (PSA-C11, PSE-C11 or PSE-C13) were incubated with 10 nM [^3H]-DHA at room temperature for 30 minutes. The mixture was loaded onto a G-50 column, a solution passed through the column was collected in 1 mL of a binding buffer (100 mM NaCl and 20 mM HEPES (pH 7.5) supplemented with 0.5 mg/mL BSA and 20×CMC amphipathic compounds), and 15 mL of a scintillation fluid was added to the solution. Receptor-bound [^3H]-DHA was measured using a scintillation counter (Beckman). Non-specific binding of [^3H]-DHA was measured by adding 1 μM alprenolol (Sigma) to the same reaction mixture. The binding degree of the receptors to [^3H]-DHA was represented by a column graph.
The ability of TPSs (TPS-As, TPS-Es and TPS-ELs) to stabilize the structures of human β2 adrenergic receptors (β2ARs) and G protein-coupled receptors (GPCRs) was measured. That is, DDM-purified receptors were diluted with a buffer solution containing only each of the TPSs without cholesteryl hemisuccinate (CHS) or a buffer solution containing CHS and DDM. The final concentration of the compounds was CMC+0.2wt %, and the binding activity of the receptors to ligands was evaluated by measuring the degree of binding of the receptors to [^3H]-dihydroalprenolol ([^3H]-DHA).
Specifically, radioactive ligand binding assay was performed as follows. β2ARs were purified with 0.1 wt % DDM (D. M. Rosenbaum et al., Science, 2007, 318, 1266-1273.) and was concentrated to about 10 mg/mL (approximately 200 μM). β2ARs purified with DDM were used to prepare a master binding mixture containing 10 nM [^3H]-dihydroalprenolol (DHA), which was dissolved in 0.2% amphipathic compounds (DDM or TPSs) and supplemented with 0.5 mg/mL BSA. The activity of the receptors purified with the amphipathic compounds was monitored at regular intervals over a 3- to 5-day incubation period. The receptors purified with DDM or TPSs were incubated with 10 nM [^3H]-DHA at room temperature for 30 minutes. The mixture was loaded onto a G-50 column, a solution passed through the column was collected in 1 mL of a binding buffer (100 mM NaCl and 20 mM HEPES (pH 7.5) supplemented with 0.5 mg/mL BSA and 20×CMC of each amphipathic compound), and 15 mL of a scintillation fluid was added to the solution. Receptor-bound [^3H]-DHA was measured using a scintillation counter (Beckman). The binding degree of the receptors to [^3H]-DHA was represented by a column graph.

[4] = biological target: T2, boron transporter (BOR1) BOR1-GFP fusion protein (Arabidopsis thaliana, UniProt Q8VYR7); assay: solubilization (extraction) of BOR1-GFP fusion protein from membranes; settings: amphipathic compound at 1.0 wt %
T2 construct: made in house; host or cells: Saccharomyces cerevisiae FGY217
Experimental: The ability of PSAs and PSEs to solubilize membrane proteins and to stabilize the structures of membrane proteins was evaluated using boron transporter (BOR1), a membrane protein. BOR1 was isolated from Arabidopsis thaliana, and was expressed in the form of a fusion protein having a GFP tag at the C-terminus in Saccharomyces cerevisiae FGY217 cells. This fusion protein has been proven to have boron transporting activity and is therefore involved in both structural and functional analysis of membrane proteins.
The ability of amphipathic compound PSAs and PSEs to solubilize the boron transporter (BOR1) membrane protein was evaluated.
Specifically, membranes containing BOR1-GFP fusion proteins were treated with an existing amphipathic compound (DDM), PSAs (PSA-C9, PSA-C10 and PSA-C11), or PSEs (PSE-C9, PSE-C11 and PSE-C13) at a concentration of 1.0 wt %. The solubilization efficiencies of PSA-C9, PSA-C10 and PSE-C9 were about 80% similar to the solubilization efficiency of DDM. In particular, the BOR1-GFP protein was quantitatively extracted (˜100%) using PSE-C11 having medium length chains, thus confirming that PSE-C11 is particularly useful for solubilization of BOR1-GFP.
(§2) Specifically, Arabidopsis thaliana-derived BOR1 was expressed in the form of a fusion protein having a GFP tag at the C-terminus in Saccharomyces cerevisiae FGY217 cells. The cells were grown in an URA-medium supplemented with 0.1% glucose. 2% galactose was added to the cell culture to induce protein expression and the cells were cultured at 20° C. for 18 hours (see Drew, D. et al., Nat. Protoc. 2008, 3, 784-798.). After culture, the cells were harvested and used to obtain the cell membranes (see Leung, J. et al., Protein Expr. Purif. 2010, 72, 139-146.). Membranes containing BOR1-GFP fusion proteins were diluted to a final total protein concentration of 2.8 mg/mL in PBS (pH7.4) supplemented with 1 wt % DDM, 1 wt % PSAs (PSA-C9, PSA-C10 or PSA-C11) or 1 wt % PSEs (PSE-C9, PSE-C11 or PSE-C13). The diluted samples were incubated at 4° C. for 1 hour with gentle shaking, and insoluble substances were removed by centrifugation at 14,000 g for 1 hour at 4° C. Supernatants containing the dissolved protein samples were incubated for 10 minutes at the specified temperature (35, 40, 45 or 50° C.), and strongly agglutinated proteins were removed by centrifugation at 14,000 g for 10 minutes at 4° C. 200 μL aliquots were taken from the supernatant and injected into a Superose 6 10/300 column equilibrated with 20 mM Tris-HCl (pH 7.5), 150 mM NaCl and 0.03% DDM. Each elution fraction was collected from a retention volume of 6.4 mL (i.e., after 6.4 mL of solution had passed), and added to a well of a clear bottom 96-well plate at a volume of 200 μL. GFP fluorescence generated in each fraction was measured using an excitation wavelength of 470 nm and an emission wavelength of 512 nm.

[5] = biological target: T2, boron transporter (BOR1) BOR1-GFP fusion protein; assay: structural (thermal) stability of solubilized BOR1-GFP by fluorescence-based size exclusion chromatography (FSEC); settings: heated at 40° C. for 10 minutes, 1 wt % compound
Experimental: The ability of PSAs or PSEs to stabilize the structure of boron transporter (BOR1) was measured in an aqueous solution. That is, the BOR1 protein solubilized in each amphipathic compound was denatured by heating, and then structural stability of BOR1 was measured using fluorescence-based size exclusion chromatography (FSEC).
as §2

[6] = tested on: leucine transporter (LeuT); assay: LeuT stability, [3H]-Leu binding by scintillation proximity assay (SPA); type: biochemical, Aquifex aeolicus; settings: CMC+0.2 wt %, room temperature, 12 days
Experimental: The ability of PSAs, PSEs or TPSs (TPS-A/E/ELs) to stabilize leucine transporter (LeuT), a membrane protein, was measured. LeuT purified by DDM was mixed with a solution containing each amphipathic compound, and the mixture was incubated at room temperature for 12 days. The activity of LeuT proteins was measured by scintillation proximity assay (SPA) using a ligand ([^3H]-Leu), and the concentration of PSAs, PSEs, TPSs or DDM was (a) CMC+0.04 wt %, or (b) CMC+0.2 wt %.
Specifically, LeuT stability measurement was performed in the following manner. According to the results of Example 6, PSA-C10, PSA-C11, PSE-C9, PSE-C11, and PSE-C13 were selected as the amphipathic compounds of PSAs and PSEs except for PSA-C9, and wild type leucine transporter (LeuT) was purified from Aquifex aeolicus using TPS-As, TPS-Es and TPS-EL, according to the method described in G. Deckert et al. (Nature 1998, 392, 353-358.). E. coli C41 (DE3) was transformed with a pET16b plasmid containing a gene construct encoding C-terminal 8×His-tagged LeuT, and thus LeuT was expressed in the form of a fusion protein having 8×His tags at the C-terminus in the transformed E. coli C41 (the expression plasmid was provided by Dr. E. Gouaux, Vollum Institute, Portland, Oreg., USA). Briefly, bacterial membranes containing LeuT were treated with 1.0 wt % DDM, and proteins were bound to Ni^2+-NTA resin (Life Technologies, Denmark). LeuT bound to the resin was eluted using a buffer solution containing 20 mM Tris-HCl (pH 8.0), 1 mM NaCl, 199 mM KCl, 0.05% DDM and 300 mM imidazole. Next, about 1.5 mg/mL of protein stock was diluted 10-fold in an equivalent buffer supplemented with TPS-As, TPS-Es, TPS-ELs, PSAs/PSEs (PSA-C10, PSA-C11, PSE-C9, PSE-C11 and PSE-C13) or DDM (control group) to a final concentration of CMC+0.04 wt % or CMC+0.2 wt % without DDM and imidazole. The protein samples were stored at room temperature and centrifuged at designated times. Protein activity was determined by measuring the degree of binding to [^3H]-Leu using scintillation proximity assay (SPA) (M. Quick et al., Proc. Natl, Acad. Sci. U.S.A. 2007, 104, 3603-3608.). Briefly, SPA was performed with 5 μL of each protein sample dissolved in a buffer containing 450 mM NaCl and each test compound. The SPA reaction was performed in the presence of 20 nM [^3H]-Leu and copper chelate (His-Tag) YSi beads (both were purchased from PerkinElmer, Denmark). The degree of binding to [^3H]-Leu was measured using a MicroBeta liquid scintillation counter (PerkinElmer).

Rh (nm), hydrodynamic radius of micelles [1]	CMC [2]	CMC (wt %) [2]	long-term β2AR activity ([3H]-DHA binding) [3]	solubilization efficiency of BOR1-GFP [4]	LeuT transporter activity retained after 12 days of incubation [6]	Compound	structural stability of solubilized BOR1-GFP after heating (RFU, FSEC) [5]
4.6 ± 0.18 nm	~0.004 mM	~0.0006 wt %	significantly better than that of DDM			CCCCCCCCCOCC(COCCCCCCCCC)(COCCCCCCCCC)CO[C@@H]1OC(COCCCO[C@@H]2OC(CO)[C@@H](O)C(O)C2O)[C@@H](OCCCO[C@@H]2OC(CO)[C@@H](O)C(O)C2O)C(OCCCO[C@@H]2OC(CO)[C@@H](O)C(O)C2O)C1OCCCO[C@@H]1OC(CO)[C@@H](O)C(O)C1O (some centres unmarked) [TPS-E9L]	
3.10 ± 0.05 nm	~0.009 mM	~0.0010 wt %		about 80%		CCCCCCCCCCC(CCCCCCCCCC)CO[C@@H]1OC(CO[C@@H]2OC(CO)[C@@H](O)C(O)C2O)[C@@H](O[C@@H]2OC(CO)[C@@H](O)C(O)C2O)C(O[C@@H]2OC(CO)[C@@H](O)C(O)C2O)C1O[C@@H]1OC(CO)[C@@H](O)C(O)C1O (some centres unmarked) [PSA-C10]	remarkably improved as compared to DDM and PSA-C9
					40%	CCCCCCCCCCC(CCCCCCCCCC)(CO[C@@H]1O[C@H](CO)[C@@H](O[C@H]2O[C@H](CO)[C@@H](O)[C@H](O)[C@H]2O)[C@H](O)[C@H]1O)CO[C@@H]1O[C@H](CO)[C@@H](O[C@H]2O[C@H](CO)[C@@H](O)[C@H](O)[C@H]2O)[C@H](O)[C@H]1O [MNG-3, reference compound]	
2.94 ± 0.05 nm	~0.014 mM	~0.0016 wt %		about 80%		CCCCCCCCCC(CCCCCCCCC)CO[C@@H]1OC(CO[C@@H]2OC(CO)[C@@H](O)C(O)C2O)[C@@H](O[C@@H]2OC(CO)[C@@H](O)C(O)C2O)C(O[C@@H]2OC(CO)[C@@H](O)C(O)C2O)C1O[C@@H]1OC(CO)[C@@H](O)C(O)C1O (some centres unmarked) [PSA-C9]	
